# Read-outs that look alike come from different tables or passages of the source.
# B1: HuBA-1-3D antibody: humanized anti-hDLK-1 antibody from WO2014/054820; H chain V region SEQ ID NO: 36, L chain V region SEQ ID NO: 46; GlymaxX produced (antibody, V domains shown)
# VH: QVQLVQSGAEVKKPGASVKVSCKGSGYTFTDYAMHWVRQAPGQGLEWIGVISTYYGNTNYNQKFKGKATMTVDKSTSTAYMELRSLRSDDTAVYYCARGGLREYYYAMDYWGQGTMVTVSS
# VL: DIVMTQSPDSLAVSLGERATINCKSSQSLLNSSNQKNYLAWYQQKPGQPPKLLVYFASTRESGVPDRFSGSGSGTDFTLTISSLQAEDVAVYYCQQHYSTPPTFGQGTKLEIK
# modifications: GlymaxX glycoengineered
# notes: humanized anti-hDLK-1 antibody from WO2014/054820; GlymaxX produced
# Experiments:
# Hep3B xenograft model [1] = test: combined effect of lenvatinib and anti-hDLK-1 antibody on tumorigenesis inhibitory activity, Hep3B xenograft model; type: in vivo, NOD/ShiJic-scidJcl mice; conditions: for tumor weight: tumors collected on final day of observation (Day 38)
# Text: Using a Hep3B xenograft model, lenvatinib mesylate and anti-hDLK-1 antibody were studied for their combined effect on tumorigenesis inhibitory activity.
# (§1) The lenvatinib mesylate used here was commercially available (hereinafter simply referred to as “lenvatinib” in this example). The anti-hDLK-1 antibody used here was “HuBA-1-3D-1-A24G/T73K antibody” found in WO2014/054820 (hereinafter simply referred to as “HuBA-1-3D antibody” in this example), and DNA encoding this antibody protein was constructed in accordance with the procedures shown in WO2014/054820 (see the Example section in the specification), followed by production and preparation of this antibody protein in host cells using the GlymaxX® technology (ProBioGen AG; see https://www.probiogen.de/genetic-glyco-engineering-adcc-glymaxx.html). It should be noted that the HuBA-1-3D-1-A24G/T73K antibody used here has an H chain V region consisting of the amino acid sequence shown in SEQ ID NO: 36 and an L chain V region consisting of the amino acid sequence shown in SEQ ID NO: 46.
# 1×10^6 Hep3B cells were transplanted subcutaneously into the right flank of female NOD/ShiJic-scidJcl mice at 6 to 7 weeks of age (Day 0). At the stage where the mean tumor volume reached around 100 mm^3 (Day 14), these mice were divided into the following groups: the control group (N=8, 103.5±18.1 mm^3), the group receiving lenvatinib (3 mg/kg body weight) (N=8, 102.8±16.8 mm^3), the group receiving HuBA-1-3D antibody (1 mg/kg body weight) (N=8, 102.7±15.0 mm^3), and the group receiving both lenvatinib (3 mg/kg body weight) and HuBA-1-3D antibody (1 mg/kg body weight) (N=8, 102.5±12.5 mm^3) (hereinafter referred to as the group receiving lenvatinib+HuBA-1-3D antibody). For a period of 12 days starting from Day 14, HuBA-1-3D antibody was administered twice a week (4 times in total; Days 14, 18, 22 and 25), and lenvatinib was administered 5 times a week (administration for 5 days and withdrawal for 2 days) (10 times in total; Days 14, 15, 16, 17, 18, 21, 22, 23, 24 and 25). The tumor volume was measured at a frequency of twice a week, and an animal whose tumor volume reached 1500 mm^3 was excluded from observation.
# Hep3B xenograft model [2] = test: sensitivity to lenvatinib in Hep3B xenograft therapeutic model; type: in vivo, NOD/SCID mice; conditions: Day 29; for tumor volume (mean±standard deviation): 5 times a week, N=8; for tumor volume ratio (T/C) relative to the vehicle group: P<0.05
# Text: (§2) Two cell lines (Hep3B and HepG2) derived from human hepatocellular carcinoma were compared for their sensitivity to lenvatinib mesylate (commercially available; hereinafter simply referred to as “lenvatinib” in this example) in xenograft therapeutic models.
# In a Hep3B xenograft model, NOD/SCID mice were transplanted with the cells subcutaneously, and then divided into groups of 8 mice each at the time when the mean tumor volume exceeded 100 mm^3 (Day 14), and administration was started on the same day. The administration was conducted at a dose of 10 μL/g per mouse body weight via the oral route with an oral sonde, 5 times a week (administration for 5 days and withdrawal for 2 days) (12 times in total; Days 14, 15, 16, 17, 18, 21, 22, 23, 24, 25, 28 and 29) until the final day of the test. The tumor volume (mean±standard deviation) at 29 days after transplantation (Day 29; the final day of the test) was 1050.3±553.8 mm^3 in the group receiving vehicle (water for injection) (N=8), 400.9±160.9 mm^3 in the group receiving lenvatinib (3 mg/kg) (N=8), 200.2±133.3 mm^3 in the group receiving lenvatinib (10 mg/kg) (N=8), and 136.2±33.8 mm^3 in the group receiving lenvatinib (30 mg/kg) (N=8). The tumor volume ratio (T/C) relative to the vehicle group on Day 29 was 38.2% (P<0.05), 19.1% (P<0.05) and 13.0% (P<0.05), respectively, in the groups receiving lenvatinib (3, 10 and 30 mg/kg) (FIG. 3A).
# HepG2 xenograft model [3] = test: combined effect of lenvatinib and anti-hDLK-1 antibody on tumorigenesis inhibitory activity, HepG2 xenograft model; type: in vivo, NOD/ShiJic-scidJcl mice
# Text: Using a HepG2 xenograft model, lenvatinib mesylate and anti-hDLK-1 antibody were studied for their combined effect on tumorigenesis inhibitory activity.
# as §1
# 5×10^6 HepG2 cells were transplanted subcutaneously into the right flank of female NOD/ShiJic-scidJcl mice at 7 weeks of age (Day 0). At the stage where the mean tumor volume reached around 100 mm^3 (Day 10), these mice were divided into the following groups: the control group (N=8, 118.4±15 6 mm^3), the group receiving lenvatinib (10 mg/kg body weight) (N=8, 118.8±15.2 mm^3), the group receiving HuBA-1-3D antibody (1 mg/kg body weight) (N=8, 119.8±12.9 mm^3), and the group receiving both lenvatinib (10 mg/kg body weight) and HuBA-1-3D antibody (1 mg/kg body weight) (N=8, 119.7±13.4 mm^3) (hereinafter referred to as the group receiving lenvatinib+HuBA-1-3D antibody). For a period of 12 days starting from Day 10, HuBA-1-3D antibody was administered twice a week (4 times in total; Days 10, 13, 17 and 21), and lenvatinib was administered 5 times a week (administration for 5 days and withdrawal for 2 days) (10 times in total; Days 10, 11, 12, 13, 14, 17, 18, 19, 20 and 21). The tumor volume was measured at a frequency of twice a week, and an animal whose tumor volume reached 1500 mm^3 was excluded from observation.
# [4] = tested on: unresectable hepatocellular carcinoma; conditions: cited from earlier work
# HepG2 xenograft model [5] = test: sensitivity to lenvatinib in HepG2 xenograft therapeutic model; type: in vivo, NOD/SCID mice; conditions: Day 28; for tumor volume (mean±standard deviation): 5 times a week, N=8; for tumor volume ratio (T/C) relative to the vehicle group: P<0.05
# Text: as §2
# NOD/SCID mice were transplanted with the cells subcutaneously, and then divided into groups of 8 mice each at the time when the mean tumor volume exceeded 100 mm^3 (Day 10), and administration was started on the same day. The administration was conducted at a dose of 10 μL/g per mouse body weight via the oral route with an oral sonde, 5 times a week (administration for 5 days and withdrawal for 2 days) (14 times in total; Days 10, 11, 12, 13, 14, 17, 18, 19, 20, 21, 24, 25, 26 and 27) until the day before the final day of the test. The tumor volume (mean±standard deviation) at 28 days after transplantation (Day 28; the final day of the test) was 1163.0±205.1 mm^3 in the group receiving vehicle (water for injection) (N=8), 892.5±220.7 mm^3 in the group receiving lenvatinib (3 mg/kg) (N=8), 506.8±215.7 mm^3 in the group receiving lenvatinib (10 mg/kg) (N=8), and 380.0±146.8 mm^3 in the group receiving lenvatinib (30 mg/kg) (N=8). The tumor volume ratio (T/C) relative to the vehicle group on Day 28 was 76.7% (P<0.05), 43.6% (P<0.05) and 32.7% (P<0.05), respectively, in the groups receiving lenvatinib (3, 10 and 30 mg/kg) (FIG. 3B).
# [6] = Day 25 (final day of administration), lenvatinib 3 mg/kg 5 times a week, HuBA-1-3D antibody 1 mg/kg twice a week, N=8
# [7] = Day 31 (6 days after completion of administration), lenvatinib 3 mg/kg, HuBA-1-3D antibody 1 mg/kg
# [8] = Day 38 (13 days after completion of administration), lenvatinib 3 mg/kg, HuBA-1-3D antibody 1 mg/kg
# [9] = lenvatinib 3 mg/kg, HuBA-1-3D antibody 1 mg/kg
# [10] = Day 21 (final day of administration), lenvatinib 10 mg/kg 5 times a week, HuBA-1-3D antibody 1 mg/kg twice a week, N=8
# [11] = Day 31 (10 days after completion of administration), lenvatinib 10 mg/kg, HuBA-1-3D antibody 1 mg/kg, N=8
# [12] = Day 34 (13 days after completion of administration), lenvatinib 10 mg/kg, HuBA-1-3D antibody 1 mg/kg
# [13] = primary therapeutic agent, unresectable hepatocellular carcinoma, whole treatment group
Molecule,tumor volume (Hep3B xenograft model [1]; [6]) [mm^3],tumor volume (Hep3B xenograft model [1]; [7]) [mm^3],tumor volume (Hep3B xenograft model [1]; [8]) [mm^3],tumor weight (Hep3B xenograft model [1]; [9]) [mg],tumor volume (HepG2 xenograft model [3]; [10]) [mm^3],tumor volume (HepG2 xenograft model [3]; [11]) [mm^3],tumor volume (HepG2 xenograft model [3]; [12]) [mm^3],"efficacy [4, 13] [%]",further results
"COc1cc2nccc(Oc3ccc(NC(=O)NC4CC4)c(Cl)c3)c2cc1C(N)=O [lenvatinib, 4-[3-chloro-4-(cyclopropylcarbamoylamino)phenoxy]-7-methoxy-quinoline-6-carboxamide]",268.1±175.7,572.2±456.0,1148.5±591.0,841.1 ± 515.8,326.2±188.7,817.4±583.4,796.2±461.7,40.6,"tumor volume (mean±standard deviation) (Hep3B xenograft model [2]; lenvatinib 3 mg/kg oral): 400.9±160.9 mm^3; tumor volume ratio (T/C) relative to the vehicle group (Hep3B xenograft model [2]; lenvatinib 3 mg/kg): 38.2%; tumor volume (mean±standard deviation) (Hep3B xenograft model [2]; lenvatinib 10 mg/kg oral): 200.2±133.3 mm^3; tumor volume ratio (T/C) relative to the vehicle group (Hep3B xenograft model [2]; lenvatinib 10 mg/kg): 19.1%; tumor volume (mean±standard deviation) (Hep3B xenograft model [2]; lenvatinib 30 mg/kg oral): 136.2±33.8 mm^3; tumor volume ratio (T/C) relative to the vehicle group (Hep3B xenograft model [2]; lenvatinib 30 mg/kg): 13.0%; animals sacrificed whose tumor volume exceeded 1500 mm^3 (HepG2 xenograft model [3]; Day 31, lenvatinib 10 mg/kg): one of the 8 animals; efficacy ([4]; Japanese population (of 81 patients) assigned to the lenvatinib group): 46.9%; tumor volume (mean±standard deviation) (HepG2 xenograft model [5]; lenvatinib 3 mg/kg oral): 892.5±220.7 mm^3; tumor volume ratio (T/C) relative to the vehicle group (HepG2 xenograft model [5]; lenvatinib 3 mg/kg): 76.7%; tumor volume (mean±standard deviation) (HepG2 xenograft model [5]; lenvatinib 10 mg/kg oral): 506.8±215.7 mm^3; tumor volume ratio (T/C) relative to the vehicle group (HepG2 xenograft model [5]; lenvatinib 10 mg/kg): 43.6%; tumor volume (mean±standard deviation) (HepG2 xenograft model [5]; lenvatinib 30 mg/kg oral): 380.0±146.8 mm^3; tumor volume ratio (T/C) relative to the vehicle group (HepG2 xenograft model [5]; lenvatinib 30 mg/kg): 32.7%"
CNC(=O)c1cc(Oc2ccc(NC(=O)Nc3ccc(Cl)c(C(F)(F)F)c3)cc2)ccn1 [sorafenib],–,–,–,–,–,–,–,12.4,–
B1,144.6±111.2,92.9±79.3,402.3±364.4,392.3 ± 412.9,116.4±42.4,394.0±169.8,584.1±241.9,–,–

# From patent US20220193064A1, “MEDICAMENT FOR TREATING CANCER” (CHIOME BIOSCIENCE INC., priority 2019, published 2022)
